Reference: patent US11226337B2, “Chemoproteomic profiling of protein electrophilic and oxidative post-translational modifications” (Zenagem, LLC, priority 2017, dated 2022)

What was measured:
[1] = molecular target: T1, ALDH1B1 Aldehyde dehydrogenase X (P30837) (Homo sapiens, UniProt P30837); test: SILAC RP-ABPP; type: cell-based; conditions: SILAC H/L, HEK293T
T1 construct: shared by both the endogenous and recombinant forms of these proteins; endogenous in cells; host or cells: HEK293T and MDA-MB-231
T1 sequence (P30837 18-517): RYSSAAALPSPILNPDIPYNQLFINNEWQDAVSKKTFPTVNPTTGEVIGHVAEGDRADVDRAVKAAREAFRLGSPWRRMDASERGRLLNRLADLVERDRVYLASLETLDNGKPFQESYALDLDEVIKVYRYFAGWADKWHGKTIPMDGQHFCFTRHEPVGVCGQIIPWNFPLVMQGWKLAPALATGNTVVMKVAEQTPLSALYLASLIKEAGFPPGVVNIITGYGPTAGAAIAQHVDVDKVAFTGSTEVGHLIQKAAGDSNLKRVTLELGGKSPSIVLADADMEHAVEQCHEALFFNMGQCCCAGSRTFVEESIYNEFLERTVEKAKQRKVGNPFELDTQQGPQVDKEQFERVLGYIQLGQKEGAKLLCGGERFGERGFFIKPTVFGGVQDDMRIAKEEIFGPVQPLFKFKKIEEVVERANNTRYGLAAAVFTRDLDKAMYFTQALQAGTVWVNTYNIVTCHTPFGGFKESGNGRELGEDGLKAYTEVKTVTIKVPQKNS
Description: (§1) For MS-based experiments, labelling was performed in a similar manner as described above in Example 2, maintaining the same concentrations of probes. Modifications to this protocol included using isotopically ‘light’ and ‘heavy’ SILAC cells that were also grown to near complete confluence prior to treatment. Isotopically light cells were treated with the non-clickable hydrazine probe (at the same concentration as the probe in ‘enrichment’ experiments) or the probe in the presence of 10-fold excess non-clickable hydrazine probe as a competitor (in ‘competition’ experiments). Isotopically heavy cells were treated with the probe for both types of experiments. These treatments were performed in non-SILAC media. Following treatments, cells were washed with cold PBS to remove the probe-containing media, harvested by scraping, collected by centrifugation (1,400 g, 3 min, 4° C.), washed again by resuspension in cold PBS and frozen as pellets at −80° C. until use.
The fractionated equimolar mixture of heavy and light soluble proteomes (1-1.5 mg) was diluted to 1 mL in PBS. Click reactions were scaled accordingly (except for biotin-azide) to maintain final concentrations of 0.1 mM TBTA, 1 mM CuSO4, 100 μM biotin-azide (10 mM in DMSO) and 1 mM TCEP. The mixture was vortexed and placed on a rotator at ambient temperature for 1 hour. Sequential addition of and mixture with pre-chilled methanol (MeOH, 2 mL), chloroform (CHCl3, 0.5 mL) and PBS (1 mL) on ice quenched the reaction. The precipitated proteome was centrifuged (5,000 g, 10 min, 4° C.) to fractionate the protein interphase from the organic and aqueous solvent layers. The protein pellet was washed with cold 1:1 MeOH:CHCl3 (3×1 mL), mildly sonicated in cold 4:1 MeOH:CHCl3 (2.5 mL) and pelleted once more by centrifugation (5,000 g, 10 min, 4° C.) to ensure click reagents were efficiently removed.
(§2) Heavy and light parent ion chromatograms associated with successfully identified peptides were extracted and compared using CIMAGE software as previously described^69. At least one ion of a co-eluting heavy-light pair must be accurately identified from a fragmentation event that occurred within the retention time window (±10 min) of parent ion elution. To ensure that the correct pair of peaks is quantified, chromatograms are extracted within a 10 ppm error tolerance of the predicted m/z, the signal-to-noise ratio must be >2.5 and the ‘co-elution correlation score’ and ‘envelope correlation score’ must have R^2 values ≥0.8. In addition, peptides detected as ‘singletons,’ where only the heavy ion of a peptide pair was identified, but for which passed all other filtering parameters, are given a default assigned ratio of ‘20,’ which is defined as any measured ratio that is ≥20.
To further eliminate false positives and any stochastic variability in the data, protein ratios were then determined by the median peptide ratio derived from three or more unique quantified peptides. Protein ratios that complied with these criteria from a single experiment were then averaged with ratios acquired from ≥3 replicates to provide final values for each type of experiment in both cell lines with both probes. […] Most importantly, there are no robustly measured ratios for proteins identified as probe 1 targets that had measured ratios of ˜1 with probe 2. Probe targets in HEK293T and MDA-MB-231 cells represent data combined from ≥3 independent biological replicates with each cell type performed with several independent batches of synthesized probes over a period of almost two years. […]

[2] = test system: Uncharacterized protein (H7C469); test: SILAC RP-ABPP; type: cell-based, human; conditions: SILAC H/L
Description: as §1, with “use. […]” for “use.”
as §2, with “At least one ion of a co-eluting heavy-light pair must be accurately identified from a fragmentation event that occurred within the retention time window (±10 min) of parent ion elution.” left out
To further eliminate false positives and any stochastic variability in the data, protein ratios were then determined by the median peptide ratio derived from three or more unique quantified peptides. […] Most importantly, there are no robustly measured ratios for proteins identified as probe 1 targets that had measured ratios of ˜1 with probe 2. […]

[3] = molecular target: T2, AMD1 (Homo sapiens, UniProt P17707); test: probe labelling of E. coli cells expressing the protein; type: cell-based; conditions: probe 1 3 mM or probe 2 1 mM, 37° C., 0.5 hour
T2 construct: made in house; host or cells: E. coli (intact cells treated with probe)
Description: Induced overnight cultures expressing each protein were resuspended in serum-free DMEM supplemented with 10 mM Na-HEPES buffer (pH 7.5) such that the final OD600 was ˜10. The probes were added to the cells (3 and 1 mM, respectively, for 1 and 2) and incubated at 37° C. for 0.5 hour. Note that these are the same conditions used for treatment of mammalian cells. The cells were pelleted (16,000 g, 3 min, 4° C.), washed with PBS (2×1 mL), and resuspended in HEPES buffer or PBS maintaining the same initial volume. Cells were lysed by sonication, debris was pelleted, soluble protein was diluted to 0.5 mg/mL with PBS and probe-labelled proteins were conjugated to rhodamine-azide and visualized as described above in Example 2.

T2 sequence (P17707 68-334): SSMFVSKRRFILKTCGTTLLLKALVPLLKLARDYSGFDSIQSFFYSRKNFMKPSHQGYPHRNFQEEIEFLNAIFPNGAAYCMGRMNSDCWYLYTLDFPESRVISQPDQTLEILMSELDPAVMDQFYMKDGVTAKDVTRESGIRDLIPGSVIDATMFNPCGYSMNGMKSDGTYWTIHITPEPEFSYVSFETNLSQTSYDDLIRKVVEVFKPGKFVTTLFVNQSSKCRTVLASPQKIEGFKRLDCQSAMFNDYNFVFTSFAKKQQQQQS
T2 sequence (P17707 2-67): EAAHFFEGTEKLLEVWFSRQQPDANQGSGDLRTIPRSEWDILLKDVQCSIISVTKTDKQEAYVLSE

SMILES | enrichment ratioavg ([1]; probe 1 3 mM 0.5 h vs probe 3) | competition ratioavg ([1]; probe 1 vs probe 1+10x probe 3) | competition ratioavg ([2]; probe 1 vs probe 1+10x probe 3, cell line not given) | probe labelling of protein expressed in E. coli [3] | enrichment ratioavg ([1]; probe 2 1 mM 0.5 h vs probe 4) | competition ratioavg ([1]; probe 2 vs probe 2+10x probe 4) | enrichment ratioavg ([2]; probe 2 1 mM 0.5 h vs probe 4, MDA-MB-231) | competition ratioavg ([2]; probe 2 vs probe 2+10x probe 4, MDA-MB-231)
C#CCNN.Cl [probe 1, prop-2-yn-1-ylhydrazine hydrochloride] | 6 | 3 | 2 | reacts well |  |  |  | 
C#CCCNC(=O)c1ccc(NN)cc1.Cl [probe 2, N-(but-3-yn-1-yl)-4-hydrazinylbenzamide hydrochloride] |  |  |  | reacts well | 11 | 5 | 14 | 5
